# The source made the active and inactive calls.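 Rule for the calls: active = switches on the TRPC4 calcium channel at some tested dose and gives a concentration response curve; inactive = the rest.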
# Molecular target: TRPC4 (mouse), transient receptor potential cation channel C4
# Test: agonist potency at mouse TRPC4 – cell-based, HEK293 TRPC4/mu-opioid, Fluo-4 calcium flux, dose response (AID 493211)
# Settings: HEK293 TRPC4/mu-opioid cells, Fluo-4 calcium fluorescence ratio
row,Compound,EC50 [nM]
1,CN1CCN(c2ccc([N+](=O)[O-])c3cccnc23)CC1,9.12

# Same assay, conditions: HEK293 TRPC4/mu-opioid cells, Fluo-4 calcium fluorescence ratio; at 20 µM (top of the series)
row,Compound,"fluorescence ratio, percent of baseline (100 = none)"
1,COc1ccc(N2CCN(c3ccc([N+](=O)[O-])c4cccnc34)CC2)cc1,inactive
2,N#Cc1ccccc1C1CCN(c2ccc([N+](=O)[O-])c3cccnc23)CC1,inactive
3,O=[N+]([O-])c1ccc(N2CCC3(CCc4ccccc43)CC2)c2ncccc12,inactive
4,O=[N+]([O-])c1ccc(N2CCC3(C=Cc4ccccc43)CC2)c2ncccc12,inactive
5,O=[N+]([O-])c1ccc(N2CCN(c3ccc(F)cc3F)CC2)c2ncccc12,inactive
6,CCOC(=O)NC1CCN(c2ccc([N+](=O)[O-])c3cccnc23)CC1,inactive
7,O=[N+]([O-])c1ccc(N2CCN(c3ccncc3)CC2)c2ncccc12,inactive
8,N#Cc1ccccc1N1CCN(c2ccc([N+](=O)[O-])c3cccnc23)CC1,inactive
9,C[C@@H]1CN(c2ccc([N+](=O)[O-])c3cccnc23)[C@@H](C)CN1,inactive
10,C[C@H]1CCCN1c1ccc([N+](=O)[O-])c2cccnc12,inactive
11,O=[N+]([O-])c1ccc(N2CCN(c3ncccn3)CC2)c2ncccc12,inactive
12,CC(C)(C)OC(=O)N1CCN(c2ccc([N+](=O)[O-])c3cccnc23)CC1,inactive
13,O=C1CC(Nc2ccc([N+](=O)[O-])c3cccnc23)CN1 (stereo not drawn),inactive
14,COC(=O)C1CCCN(c2ccc([N+](=O)[O-])c3cccnc23)C1 (stereo not drawn),inactive
15,O=[N+]([O-])c1ccc(N2CCOCC2)c2ncccc12,inactive
16,COc1ccccc1N1CCN(c2ccc([N+](=O)[O-])c3cccnc23)CC1,inactive
17,O=C1NCCC1Nc1ccc([N+](=O)[O-])c2cccnc12 (stereo not drawn),inactive
18,O=[N+]([O-])c1ccc(N2CCN(c3ccccn3)CC2)c2ncccc12,inactive
19,O=[N+]([O-])c1ccc(N2CCOc3ccccc32)c2ncccc12,inactive
20,CC1CC(C)CN(c2ccc([N+](=O)[O-])c3cccnc23)C1 (stereo not drawn),inactive
21,CCN(CC)c1ccc([N+](=O)[O-])c2cccnc12,inactive
22,O=[N+]([O-])c1ccc(N2CCC2)c2ncccc12,inactive

# Reference: PubChem BioAssay AID493211 (Johns Hopkins Ion Channel Center, 2011)
